Source: patent US9862684B2, “Modulation of K2P channels” (The Regents of the University of California, priority 2013, dated 2018)

Tests used:
K2P2.1 (TREK-1)-3G [1] = target: T1, K2P2.1 (TREK-1)-3G (Mus musculus, UniProt P97438, D309G/I307G); experiment: Two-electrode voltage clamp, Xenopus oocytes, triple glycine mutant uncoupling Ct; assay type: cell-based, Murine; settings: 3G mutant
T1 sequence (P97438 1-426 I307G/D309G): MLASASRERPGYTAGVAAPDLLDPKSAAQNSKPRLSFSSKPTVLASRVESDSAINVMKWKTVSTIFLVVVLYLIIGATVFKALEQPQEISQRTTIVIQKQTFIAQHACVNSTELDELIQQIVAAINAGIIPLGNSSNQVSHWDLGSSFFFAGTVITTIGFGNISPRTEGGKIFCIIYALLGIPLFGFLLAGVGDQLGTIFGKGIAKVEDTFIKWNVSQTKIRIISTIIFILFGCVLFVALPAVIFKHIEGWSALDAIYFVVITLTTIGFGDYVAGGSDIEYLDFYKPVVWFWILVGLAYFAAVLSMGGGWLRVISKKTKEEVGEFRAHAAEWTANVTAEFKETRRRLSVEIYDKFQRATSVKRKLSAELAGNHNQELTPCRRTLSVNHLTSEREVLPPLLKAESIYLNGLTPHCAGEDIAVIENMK
Procedure: (§1) I-V curves were measured by two-electrode voltage clamp of Xenopus oocytes in b, 90 mM [K^+]o. or c-e, 2 mM [K^+]o. […] Data (were measured at 20 mV (90 mM [K^+]o) or 0 mV (2 mM [K^+]o), normalized to basal channel activity, and fitted to the Hill equation. Error bars indicate s.e., n≧6, N≧2.
(§2) Murine K2P channels were cloned into pGEMHE/pMO {Bagriantsev, 2011}, IRES-GFP (Invitrogen), or pYES2-MET25 (high copy 2μ, URA3) {Minor, 1999} for expression in oocytes, HEK-293T cells, and yeast, respectively, using standard molecular biology procedures, and verified by DNA sequencing.
(§3) Two-electrode voltage clamp recordings were performed from defolliculated stage V-VI Xenopus oocytes 24-48 hours after injection with 0.015-6.0 ng cRNA, using microelectrodes (0.3-3.0 MΩ) filled with 3M KCl. Data was acquired using the GeneClamp 500B (MDS Analytical Technologies) amplifier controlled by the pClamp software (Molecular Devices), and digitized at 1 kHz using Digidata 1332A (MDS Analytical Technologies). Recording solutions (mM): 2K (96 NaCl, 2 KCl, 1.8 CaCl2, 2 MgCl2), 90K (90 KCl, 8 NaCl, 1.8 CaCl2, 2 MgCl2), were buffered 5 mM HEPES pH 7.4. For K2P recordings, currents we elicited by a 1 second long ramp from −150 to +50 mV from a holding potential of −80 mV (2K), or −100 to +50 mV from a holding potential of 0 mV (90K). […]

K2P2.1 (TREK-1)-3G [2] = target: T2, K2P2.1 (TREK-1)-3G (Mus musculus, UniProt P97438, I307G/D309G); experiment: as above; assay type: cell-based, Murine; settings: 3G mutant
T2 sequence (P97438 1-426 I307G/D309G): T1 sequence (P97438 1-426 I307G/D309G)
Procedure: as §1, §2, §3

SMILES: CC1(C)c2cc(Cl)ccc2N(CCc2nnn[nH]2)c2ccc(Cl)cc21 [ML67-33, 2,7-dichloro-9,9-dimethyl-10-[2-(1H-tetrazol-5-yl)ethyl]acridine]
- EC50 (K2P2.1 (TREK-1)-3G [1]): 49.4 ± 0.1 µM
- Emax (fold) (K2P2.1 (TREK-1)-3G [2]): 12.9±1.0 fold
